≈ marks a conversion by molar mass, not a printed value. Entries after “also recorded” stand apart in the source; their conditions may differ. Like-named read-outs stand apart in the source and are kept apart here. Values belong to the molecule of their own block, whether it stands above or below them. Residues, ends and D or L forms follow the SMILES beside them.
How the values were obtained:
[1] = cited from earlier work; for sweetness intensity: L-aspartic acid alkyl amides, Mazur et al. 1970; for taste: in words
[2] = Amide bond cleavage by rat intestine homogenate; assay type: in vitro ADME; settings: pH 7.0, 37° C., up to two hours, standardized to Aspartame/rat = 100
Text: (§1) This aspartic acid has the same caloric value as sugar, on a per-gram basis. These aspartic acid amide sweeteners are therefore not non-nutritive, but, rather, low calorie. In addition, the other molecular fragment released as a result of amide cleavage is frequently a non-physiological amine. It was therefore considered appropriate to gauge the rate of amide cleavage of compound (II) by digestive enzymes in evaluating both the calorigenic and the toxicologic potential of compounds of this invention.
(§2) Assays were performed in the following manner:
(§3) Aliquots of four mM solutions of test compounds in 100 mM potassium phosphate buffer solution at pH 7.0 were incubated at 37° C. (98.6° F.) for up to two hours with a standardized amount of animal intestine homogenate containing digestive enzymes. At the end of the incubation period, the enzymes were inactivated by boiling and the extent of amide bond hydrolysis was quantified by measurement of free L-aspartic acid in the solution. This was done by incubating a sample of the test solution with enzymes and substrates that convert L-aspartate to L-malate with concomitant oxidation of a pyridine nucleotide having a characteristic absorbance at 340 nanometers. The decrease in optical density at this wavelength is proportional to the amount of L-aspartate generated by amide bond hydrolysis.

[3] = cited from earlier work; for half-life: pH 4
[4] = in words; cited from earlier work
[5] = Amide bond cleavage by monkey intestine homogenate; assay type: in vitro ADME; settings: pH 7.0, 37° C., up to two hours, standardized to Aspartame/rat = 100
Text: as §1, §2, §3

[6] = Hydrolytic stability in aqueous phosphate buffer; assay type: physicochemical; settings: for remaining at 360 h / half-life: 0.02 m phosphate buffer; for remaining at 360 h: read-out: % Remaining After 15 Days; for half-life: 0.02 M phosphate
Protocol: Stability tests were performed on the compound of formula (II) to determine the sweetener's resistance to hydrolysis under varying conditions.
The tests were performed using solutions of (II) in aqueous phosphate buffer, 0.02 M, at pH 3.5 and 6.9. The solutions were incubated at ~43° C. (110° F.), ~54° C. (130° F.), and ~66° C., (150° F.) for up to 32 days.
Samples from the test solutions were withdrawn at regular intervals and analyzed by reversed-phase high performance liquid chromatography for remaining intact (II), using the following conditions:
Column: 25 cm×0.4 cm I.D. stainless steel packed with Lichrosorb RP-18, 5μ particle size.
Mobile phase: Acetonitrile/0.01 M phosphate buffer (155/845 v/v), pH 6.
Detection: UV absorbance at 220 nm (~2200 Å). Results were quantified by comparison with standard solutions kept frozen during the tests. Peak heights were measured for replicate injections.
By use of the Arrhenius equation, [formula] where k is the specific reaction velocity, T is the absolute temperature (°K.), A is the activation energy constant, t is time, and R is the gas law constant, change in the rate of a first-order chemical reaction with temperature can be calculated. The half-life of (II) at ambient temperature and pH 6.9 is estimated to be 760 days (>2 yrs).

[7] = in words; cited from earlier work; remark: listed apart in the source
[8] = Taste evaluation (human taste panel, comparison with sucrose standards); assay type: in vivo, Male subjects; settings: for taste / sweetness quality: in words
Protocol: The taste quality and sweetness intensity of the compounds of the present invention were determined by the following procedure.
Male subjects were selected at random from a group of about 20 persons who had previously been selected on the basis of proven tasting acuity, i.e., persons who could easily recognize the four basic tastes (sweet, sour, bitter and salty) and who were adept at quantifying their own physiological response numerically. The subjects were asked to taste and expectorate about 10 ml of a sample at about 22° C. containing dissolved test material. The subjects were then asked to compare the sweetness (and other taste qualities) of the test solution with four or five standard coded samples which contained increasing amounts of sucrose. Sweetness intensity of the unknown material was recorded by the subject making a mark on a coded closed linear scale at a point they considered equal in sweetness among the standards; interpolation between standards was encouraged. After completion of the panel, a four or five point (1-4 or 1-5, depending on the number of standards) numeric scale was superimposed on the coded linear scales to obtain numerical data; data were averaged and recorded to the nearest 0.25 unit. Equivalent sucrose sweetness was determined by referring to graphs of (w/v) sucrose concentration and standards versus a linear numeric scale.
Sweetness intensity was calculated by dividing the concentration (w/v) of perceived sweetness by the concentration (w/v) of test material required to produce that sweetness. Most taste comparisons were made in the range of 5-10% sucrose sweetness.
The five point scale with standards ranging from 1.37% (0.040 M) to 11.97% (0.35 M) sucrose usually sufficed to bracket the sweet intensity of a test sample. However, in the cases of beverage prototypes it was more meaningful to use prototype beverage solutions containing 2.5, 5.0, 10.0, 15.0 and 20.0% sucrose as standards. In all cases, evaluation of sweetness intensity in terms of sucrose equivalents was made with reference to graphs which related sucrose concentration and standard prototypes to the particular (arbitrary) scale units employed.
In tests in which taste quality was estimated, the subjects were asked to describe the initial taste and aftertaste in terms of percent sweet, sour, bitter, salty and "other", totalling 100%. In all tests, bottled spring water was used for rinsing between samples.

[9] = Resistance to hydrolysis by digestive enzymes (statement in words); assay type: in vitro ADME, animal
Text: as §1, §2
as §3, with “hydrolysis. […]” for “hydrolysis.”

[10] = Aqueous solubility and calculated maximum effective sweetening power; assay type: physicochemical; settings: for solubility / Calculated Maximum Effective Sweetening Power: approximate (~)
Protocol: The solubility of compound (II) was determined in standard fashion. Water at pH 7 and 20° C. was used, except where indicated.
Because sweetness tends to plateau at higher concentrations of high intensity sweeteners, these calculations overestimate the actual sweetening power of the compounds of this invention.

[11] = pH 3.5, .02M Phosphate Buffer at 54° C.
[12] = pH 7, .02M Phosphate Buffer at 54° C.

SMILES: CC(C)CCC(C)NC(=O)[C@@H](N)CC(=O)O (some centres unmarked) [1,4-dimethylpentyl]
sweetness intensity [1]: 50-100 X sucrose | taste [1]: sweet

SMILES: CCCCC(C)NC(=O)[C@@H](N)CC(=O)O (some centres unmarked) [1-methylpentyl]
sweetness intensity [1]: 30 X sucrose | taste [1]: sweet

Relative rate of amide bond cleavage [2]: 35
SMILES: CCCCCC(CO)NC(=O)[C@@H](N)CC(=O)O (some centres unmarked)

SMILES: CCCC(CC)NC(=O)[C@@H](N)CC(=O)O (some centres unmarked) [Compound 1-ethylbutyl]
taste [1]: bitter

SMILES: CCCCCCNC(=O)[C@@H](N)CC(=O)O [hexyl]
sweetness intensity [1]: 1-2 X sucrose | taste [1]: sweet

Relative rate of amide bond cleavage [5]: 157 | Relative rate of amide bond cleavage [2]: 100
SMILES: COC(=O)[C@H](Cc1ccccc1)NC(=O)[C@@H](N)CC(=O)O [Aspartame, L-aspartyl-L-phenylalanine methyl ester] (H-Asp-Phe-OMe)
half-life ([3]; 40° C.): 68 days | half-life ([3]; 55° C.): 16 days | stability in aqueous media ([3]; in words): hydrolyzes rapidly in aqueous media to non-sweet compounds | % Remaining After 15 Days ([3]; pH 3.5, 54° C., comparable data from literature): 50% | % Remaining ([3]; pH 7, 54° C., at 1 day, comparable data from literature): 0% | hydrolysis by gut enzymes [4]: readily converted to L-aspartic acids by enzymes in the gut | taste [1]: high quality sweetness; also recorded: free of unpleasant aftertaste

SMILES: CCCC(C)NC(=O)[C@@H](N)CC(=O)O (some centres unmarked) [1-methylbutyl]
taste [1]: tasteless

Relative rate of amide bond cleavage [5]: 68 | Relative rate of amide bond cleavage [2]: 38
SMILES: CC(C)CCCC(C)NC(=O)[C@@H](N)CC(=O)O (some centres unmarked)

Relative rate of amide bond cleavage [2]: 11
SMILES: CC(C)C[C@@H](CO)NC(=O)[C@@H](N)CC(=O)O

SMILES: CCCCCCCNC(=O)[C@@H](N)CC(=O)O [heptyl]
sweetness intensity [1]: 1-2 X sucrose | taste [1]: sweet

Relative rate of amide bond cleavage [2]: 4
SMILES: N[C@@H](CC(=O)O)C(=O)Nc1ccc2ccccc2c1

SMILES: CCC(C)CC(C)NC(=O)[C@@H](N)CC(=O)O (some centres unmarked) [1,3-dimethylpentyl]
sweetness intensity [1]: 1-2 X sucrose | taste [1]: sweet

SMILES: O=C1NS(=O)(=O)c2ccccc21 [saccharin]
taste [1]: bitter aftertaste

Relative rate of amide bond cleavage [2]: 19
SMILES: N[C@@H](CC(=O)O)C(=O)N[C@H](CO)Cc1ccccc1

remaining at 360 h [6, 11]: 88% | remaining at 360 h [6, 12]: 72%
SMILES: CC(C)CCC(CO)NC(=O)[C@@H](N)CC(=O)O (some centres unmarked)

SMILES: CCCCCCC(C)NC(=O)[C@@H](N)CC(=O)O (some centres unmarked) [1-methylheptyl]
sweetness intensity [1]: 10 X sucrose | taste [1]: sweet

Relative rate of amide bond cleavage [5]: 103 | Relative rate of amide bond cleavage [2]: 35
SMILES: CC(C)CC[C@@H](CO)NC(=O)[C@@H](N)CC(=O)O

SMILES: CCCCCC(C)NC(=O)[C@@H](N)CC(=O)O (some centres unmarked) [1-methylhexyl]
sweetness intensity [1]: 20-50 X sucrose | taste [1]: sweet

SMILES: CC(C)CCCNC(=O)[C@@H](N)CC(=O)O [4-methylpentyl]
taste [1]: tasteless

SMILES: CC(C)CCCC(C)N (centres unmarked) [1,5-dimethylhexylamine]
pharmacological activity [7]: vasopressor and myocardial stimulant activity

SMILES: COc1ccc(CCC(=O)c2c(O)cc(O[C@@H]3O[C@H](CO)[C@@H](O)[C@H](O)[C@H]3O[C@@H]3O[C@@H](C)[C@H](O)[C@@H](O)[C@H]3O)cc2O)cc1O [Neohesperidin dihydrochalcone]
taste [1]: the sweetness is slow to develop and it has a licorice-like aftertaste

resistance to enzymatic hydrolysis [9]: resistant to enzymatic hydrolysis | half-life ([6]; pH 3.5, 54° C., pH start 3.5 (end 4.3)): 57 days | half-life ([6]; pH 3.5, 66° C., pH start 3.5 (end 4.8)): 17 days | half-life ([6]; pH 6.9, 43° C., pH start 6.9 (end 6.8)): 148 days | half-life ([6]; pH 6.9, 54° C., pH start 6.9 (end 6.09)): 64 days | half-life ([6]; pH 6.9, 66° C., pH start 6.9 (end 7.5)): 22 days | remaining at 360 h [6, 11]: 82% | remaining at 360 h [6, 12]: 86% | Relative rate of amide bond cleavage [5]: 0 | solubility ([10]; Water, pH 7, 20° C.): 30 to 40 mg/mL (≈ 115 to 154 mM) | solubility in water ([10]; in words): surprisingly soluble in water | solubility ([10]; lemonade, ditto mark): 30 to 40 mg/mL (≈ 115 to 154 mM) | Relative rate of amide bond cleavage [2]: 0
SMILES: CC(C)CC[C@H](NC(=O)[C@@H](N)CC(=O)O)[C@H](C)O [Compound II, (S)-3-amino-4-[(S,S)-1-(1-hydroxyethyl)-4-methyl-pentylamino]-4-oxo-butyric acid]
sweetness intensity ([8]; Lemonade): 85 × sucrose | sweetness intensity ([8]; Water): 60 × sucrose | sweetness relative to sucrose ([8]; at an 8% sucrose sweetness level): approximately 60 times | taste / sweetness quality [8]: sweetness quality comparable to sucrose; also recorded: sweet in both aqueous solution and granular form | taste / sweetness quality ([8]; listed as (S,S,S) compound): sweet | stability in aqueous media ([6]; in words): stable in moderately alkaline, neutral and moderately acidic aqueous media | reaction order of hydrolysis ([6]; log (% (II) intact) versus time): consistent with a reaction following first order kinetics | Calculated Maximum Effective Sweetening Power ([10]; Water): 180-240 g % sucrose equivalent | Calculated Maximum Effective Sweetening Power ([10]; lemonade): 255-340 g % sucrose equivalent

SMILES: CC(C)CC(C)NC(=O)[C@@H](N)CC(=O)O (some centres unmarked) [1,3-dimethylbutyl]
taste [1]: bitter
